This note sets out measurements from PubChem BioAssay AID2060351 (Molecular Pharmacology Branch, DTP, NCI, 2025).

In this test the test system is 521955-158-R7-J2-PDC spheroids, viability % test/control. As to the kind of experiment: Anticancer human tumor 521955-158-R7-J2-PDC patient-derived pancreatic carcinoma cell line growth inhibition [TAK]. The following applies: spheroids with HUVEC and MSC; for viability, T/C: stronger effect = lower value. An outline of the steps:
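Tumor cells were grown as spheroids with HUVEC and hMSC (60:25:15) and treated with targeted agents combined with TAK-243 or ipatasertib. Drugs were tested in half-log steps down from near the clinical Cmax, or from 10 microM where Cmax was unknown.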

The mark [1] stands for this setting: curve of first compound, second compound 0.3 µM.
Setting [2] is: curve of first compound, second compound 0.949 µM.
Setting [3] is: curve of first compound, second compound 3 µM.
[4] abbreviates: curve of first compound, second compound 9.49 µM.
[5] abbreviates: curve of first compound, second compound 30 µM.

Where “and” joins values, the source holds several entries; their conditions need not be identical. Equal entries are not always repeated.
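Also: spheroids exposed to compound for 7 days before readout.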
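For viability, T/C in this document: 100% = DMSO vehicle control wells.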

As to `CC(C)(C)c1nc(-c2cccc(NS(=O)(=O)c3c(F)cccc3F)c2F)c(-c2ccnc(N)n2)s1` + CC(C)NCC(C(=O)N1CCN(c2ncnc3c2C(C)CC3O)CC1)c1ccc(Cl)cc1, the IC50 – broadly, the concentration at which inhibition is half-maximal – is, setting by setting: under setting [1], above 10000 nM; under setting [2], above 10000 nM; under setting [3], above 10000 nM; under setting [4], above 10000 nM; under setting [5], above 10000 nM. For the same compound, the viability, T/C (in general, the ratio of treated to control) is 111% (second compound 0.3 µM, first compound 0.0316 µM); 94.3% (second compound 0.3 µM, first compound 0.1 µM); 106% (second compound 0.3 µM, first compound 0.316 µM); 131% (second compound 0.3 µM, first compound 1 µM); 101% (second compound 0.3 µM, first compound 3.16 µM); 74.2% (second compound 0.3 µM, first compound 10 µM). For the same compound, the viability, T/C reads like this: (second compound 0.949 µM, first compound 0.0316 µM) 89.3%; (second compound 0.949 µM, first compound 0.1 µM) 102%; (second compound 0.949 µM, first compound 0.316 µM) 90.4%; (second compound 0.949 µM, first compound 1 µM) 103%; (second compound 0.949 µM, first compound 3.16 µM) 92.7%; (second compound 0.949 µM, first compound 10 µM) 60.3%. The viability, T/C by setting is: (second compound 3 µM, first compound 0.0316 µM) 95%; (second compound 3 µM, first compound 0.1 µM) 115%; (second compound 3 µM, first compound 0.316 µM) 108%; (second compound 3 µM, first compound 1 µM) 130%; (second compound 3 µM, first compound 3.16 µM) 101%; (second compound 3 µM, first compound 10 µM) 71.5%. Also, the viability, T/C (second compound 9.49 µM, first compound 0.0316 µM) was 127%; the viability, T/C (second compound 9.49 µM, first compound 0.1 µM) was 115%; the viability, T/C (second compound 9.49 µM, first compound 0.316 µM) is 117%; the viability, T/C (second compound 9.49 µM, first compound 1 µM) was 119%; the viability, T/C (second compound 9.49 µM, first compound 3.16 µM) is 105%; the viability, T/C (second compound 9.49 µM, first compound 10 µM) is 83.7%. The viability, T/C is 111% (second compound 30 µM, first compound 0.0316 µM); 130% (second compound 30 µM, first compound 0.1 µM); 138% (second compound 30 µM, first compound 0.316 µM); 136% (second compound 30 µM, first compound 1 µM); 130% (second compound 30 µM, first compound 3.16 µM); 97.2% (second compound 30 µM, first compound 10 µM).
With `CC(C)CC(NC(=O)CNC(=O)c1cc(Cl)ccc1Cl)B1OC(=O)CC(CC(=O)O)(C(=O)O)O1` (stereo unspecified), the viability, T/C (compound 0.000316 µM) is 111% and 81.1%; the viability, T/C (compound 0.001 µM) was 73.9% and 80.3%; the viability, T/C (compound 0.00316 µM) was 90.1% and 80%; the viability, T/C (compound 0.01 µM) was 111% and 82.8%; the viability, T/C (compound 0.0316 µM) was 65.7% and 50.1%; the viability, T/C (compound 0.1 µM) was 2.27% and 1.64%. The half-inhibitory concentration (IC50) (curve of compound) was 42 nM and 31.6 nM.
Take `CC(C)CC(NC(=O)C(Cc1ccccc1)NC(=O)c1cnccn1)B(O)O` (stereo unspecified): the viability, T/C is 94% and 103% (compound 31.6 pM); 82.3% and 99.8% (compound 0.0001 µM); 96.1% and 93.2% (compound 0.000316 µM); 88.4% and 100% (compound 0.001 µM); 103% and 93% (compound 0.00316 µM); 4.87% and 2.64% (compound 0.01 µM). Where the note is “curve of compound”, the half-inhibitory concentration (IC50) is 5.54 nM and 5.47 nM.
For the compound `CC(=O)Nc1cccc(-n2c(=O)n(C3CC3)c(=O)c3c(Nc4ccc(I)cc4F)n(C)c(=O)c(C)c32)c1` + CC(C)NCC(C(=O)N1CCN(c2ncnc3c2C(C)CC3O)CC1)c1ccc(Cl)cc1, the IC50 was determined as 1.34 nM under setting [1]; 1.4 nM under setting [2]; 0.802 nM under setting [3]; 0.763 nM under setting [4]; 0.786 nM under setting [5]. The viability, T/C is 98.9% (second compound 0.3 µM, first compound 94.9 pM); 79.8% (second compound 0.3 µM, first compound 0.0003 µM); 51.1% (second compound 0.3 µM, first compound 0.000949 µM); 39.4% (second compound 0.3 µM, first compound 0.003 µM); 23.8% (second compound 0.3 µM, first compound 0.00949 µM); 11.7% (second compound 0.3 µM, first compound 0.03 µM). For the same compound, the viability, T/C is 106% (second compound 0.949 µM, first compound 94.9 pM); 83.6% (second compound 0.949 µM, first compound 0.0003 µM); 50.4% (second compound 0.949 µM, first compound 0.000949 µM); 39.7% (second compound 0.949 µM, first compound 0.003 µM); 24.9% (second compound 0.949 µM, first compound 0.00949 µM); 10.5% (second compound 0.949 µM, first compound 0.03 µM). For the same compound, the viability, T/C was 99.6% (second compound 3 µM, first compound 94.9 pM); 61.7% (second compound 3 µM, first compound 0.0003 µM); 50.2% (second compound 3 µM, first compound 0.000949 µM); 31.8% (second compound 3 µM, first compound 0.003 µM); 23% (second compound 3 µM, first compound 0.00949 µM); 8.8% (second compound 3 µM, first compound 0.03 µM). Besides, the viability, T/C was 82.7% (second compound 9.49 µM, first compound 94.9 pM); 68.7% (second compound 9.49 µM, first compound 0.0003 µM); 40.3% (second compound 9.49 µM, first compound 0.000949 µM); 32.1% (second compound 9.49 µM, first compound 0.003 µM); 25% (second compound 9.49 µM, first compound 0.00949 µM); 7.94% (second compound 9.49 µM, first compound 0.03 µM). Further, the viability, T/C was 93.1% (second compound 30 µM, first compound 94.9 pM); 61.4% (second compound 30 µM, first compound 0.0003 µM); 44.3% (second compound 30 µM, first compound 0.000949 µM); 35.5% (second compound 30 µM, first compound 0.003 µM); 20.4% (second compound 30 µM, first compound 0.00949 µM); 4.94% (second compound 30 µM, first compound 0.03 µM).
In the case of `CC(=O)Nc1cccc(-n2c(=O)n(C3CC3)c(=O)c3c(Nc4ccc(I)cc4F)n(C)c(=O)c(C)c32)c1`, the viability, T/C runs as follows: (compound 94.9 pM) 97.3% and 89.9%; (compound 0.0003 µM) 67.1% and 65.7%; (compound 0.000949 µM) 57.9% and 54.9%; (compound 0.003 µM) 48.7% and 39.5%; (compound 0.00949 µM) 32.1% and 27.2%; (compound 0.03 µM) 19.2% and 16.3%. Besides, for the setting “curve of compound”, the half-inhibitory concentration (IC50) is 1.89 nM and 1.25 nM.
